The values below come from patent US5028593A, “Tuftsin analogs” (Board of Regents, The University of Texas System, priority 1989, dated 1991).

Data set [1] deals with Human polymorphonuclear leukocytes (PMN). Nature of the data set: Phagocytosis assay. The class given is cell-based. The following applies: compared to tuftsin; statistically significant differences at peptide concentrations of 0.1, 1.0 and 10 μg/ml; fluorescent microspheres, 15 min. As for the experimental part: Human polymorphonuclear leukocytes (PMN) are prepared from venous blood of healthy donors. Heparinized blood is mixed with dextran and kept at 37° C. for 1 hour. The leukocyte-rich plasma is collected and centrifuged. The resulting pellet is washed with Hank's balanced salt solution (HBSS). The pellet is then suspended into HBSS, layered over Lymphocyte Separation Medium (LSM) and centrifuged. The sedimented cells are washed with HBSS. Contaminant erythrocytes are lysed by suspending the cells in sterile water for 15 seconds. The isotonicity is then restored by adding 10XHBSS. After centrifuging, the PMN are washed with HBSS, suspended in the same medium, counted, and adjusted to 1×10^6 viable cells/ml (viability>95% by trypan blue dye exclusion). Cells (0.5×10^6 cells/well) are plated in 24 well plate and placed in a 37° C. CO2 incubator for 30 min. to form a monolayer. Thereafter the supernatant is aspirated. Tuftsin or analog in 250 μl HBSS and 1.25×10^7 fluorescent microspheres (2 μm diameter) in 250 μl HBSS, are added to each well resulting in a particle to PMN ratio of 25:1, mixed, and incubated for 15 min. The supernatant is then quickly aspirated and each well washed with HBSS. […] After 10 min, % phagocytosis (% of PMN containing one or more particles) is counted under a microscope. […]

In data set [2] the test system is Splenocytes. As to the kind of experiment: Thymidine incorporation assay (growth stimulation). Type of data set: cell-based, C57BL/6 female mouse. The following applies: compared to tuftsin; peptide 10 μg/ml; adherent and non-adherent splenocytes; 3H-thymidine. The method, then: Spleen is obtained from C57BL/6 female mouse (approximately 3 months old). Splenocytes are prepared by teasing the spleen and passing them through a sieving screen. These cells in HBSS with 2% FBS are then layered over LSM and centrifuged. The cells at interphase are collected, washed with RPMI-1640 medium with 2% FBS, suspended in the same medium at 1×10^6 cells/ml, and plated into wells (1×10^6 cells per well). The plate is incubated for 45 min. in the incubator. Non-adherent cells in each well are transferred to a new well. Adherent cells and non-adherent cells are incubated in separate wells with peptide (10 μg/ml) for 6 hours in 1 ml RPMI-1640 medium with 2% FBS. ^3 H-thymidine (0.1 μCi per well) is then introduced. The plate is kept in the incubator for another 18 hours. Each well is washed and cells are collected into a tube using 1 ml of cold HBSS. After washing the cells twice, the cells are counted, mixed with 0.2 ml of 0.1% sodium dodecyl sulfate, and transferred to a liquid scintillation vial for determination of radioactivity.
(In general: Incorporation of labelled thymidine or its analogues reports DNA synthesis.)

Data set [3] deals with K-562 tumor target cells. Nature of the data set: Tumor cell cytotoxicity assay by human natural killer (NK) cells (51Cr release). The class given is cell-based. The settings on record: compared to tuftsin; NK cells activated 1 hour with 10 μg peptide per ml; 4 hour 51Cr release, K-562 targets. The method, then: A leukocyte-rich buffy coat preparation obtained from leukophoresis of a normal volunteer is used. Buffy coat is diluted with HBSS, layered over LSM, and centrifuged. The mononuclear cells at interphase are collected, washed with HBSS, suspended in RPMI-1640 medium with 10% FBS, adjusted to 5×10^6 /l ml, plated on Petri dishes (10 ml each), and incubated for 1 hour. Non-adherent cells are collected, poured into bottles containing nylon wool wet with HBSS, and kept in the incubator for 1 hour. Non-adherent cells are collected, suspended in RPMI-1640 medium with 10% FBS, adjusted to 2×10^7 /ml, mixed (1:1 volume ratio) with sheep red blood cells (6×10^8 /ml), placed in 29° C. bath for 15 min., centrifuged, and again placed in 29° C. bath for another hour. Cell clumps are gently broken up, layered over LSM, and centrifuged. […]
The viability of this NK cell enriched fraction is assessed with trypan blue, and washed with RPMI-1640 medium with 5% FBS. […] Filters containing radioactive supernatants are counted on a γ counter and counts per minutes (cpm) are recorded. Percent cytotoxicity (% specific lysis) is calculated by the following formula: [formula] […] Maximum cpm is obtained by releasing the radioactivity from the target cells by treatment with Triton X-100.

Residues, ends and D or L forms follow the SMILES beside them.

As for `CC(C)C[C@H](NC(=O)[C@H](CCCCN)NC(=O)[C@@H](N)[C@@H](C)O)C(=O)N[C@@H](CCCCN)C(=O)O` [tuftsin analog, L-Thr-L-Lys-L-Leu-L-Lys] (H-TKLK-OH), the “stimulation of phagocytosis (% phagocytosis)” value in data set [1] was “significantly greater stimulation of phagocytosis at lower concentrations compared to tuftsin itself”. The “stimulating thymidine incorporation (growth stimulation)” value in data set [2] is reported as “significantly greater activity in stimulating thymidine incorporation (growth stimulation) than did tuftsin”. Moreover, the “tumor cell cytotoxicity enhancement of human NK cells” value in data set [3] is “significantly greater tumor cell cytotoxicity enhancement of human NK cells”.
